Reference: patent US8895504B2, “Amylin derivatives” (priority 2008, dated 2014)
*1 amine or outer side, *2 acyl side, *3 side chain or, on linkers, in order; H or OH if unused. Where a SMILES comes first, the peptide text is derived from it. Bridges are numbered along the chain shown (N, C = ends). The star is where a group is joined. C20 diacid = O=C(O)CCCCCCCCCCCCCCCCCCC(=O)*; γGlu = O=C(O)[C@H](CCC(=O)[*:2])N[*:1]; AEEA = NCCOCCOCC(=O)O

Each compound was assayed against T1, Amylin 3(a) receptor (human calcitonin receptor (CTa) and RAMP-3) (Homo sapiens, UniProt O60896+P30988) (assay: Luciferase assay (III), BHK Amylin 3(a)//CRE-luc cells). Conditions: BHK cells with Amylin 3(a) receptor and CRE luciferase reporter, 4 hours incubation; read-out: Potency Luciferase.
T1 construct: expressed in transfected cells; host or cells: BHK570 cells, stably transfected with a CRE-luciferase reporter
Format: cell-based
Source text: It has previously been published (Poyner D R et al 2002, Pharmacological Reviews 54(2) 233-246) that activation of Amylin receptors (coexpression of Calcitonin receptor and receptor activity modifying peptides RAMPs) by Amylin leads to an increase in the intracellular concentration of cAMP. Consequently, transcription is activated at promoters containing multiple copies of the cAMP response element (CRE). It is thus possible to measure Amylin activity by use of a CRE luciferase reporter gene introduced into BHK cells also expressing an Amylin receptor.
2. Construction of an Amylin 3(a)/CRE-luc Cell Line
A BHK570 cell line stably transfected with the human calcitonin receptor (CTa) and a CRE-responsive luciferase reportergene. The cell line was further transfected with RAMP-3, using standard methods. This turns the Calcitonin receptor into an Amylin 3(a) receptor. Methotrexate, Neomycin, and Hygromycin are selection markers for luciferase, the Calcitonin receptor, and RAMP-3, respectively.
3. Amylin Luciferase Assay
To perform activity assays, BHK Amylin 3(a)//CRE-luc cells were seeded in white 96 well culture plates at a density of about 20,000 cells/well. The cells were in 100 μl growth medium (DMEM with 10% FBS, 1% Pen/Strep, 1 mM Na-pyruvate, 250 nM Methotrexate, 500 μg/ml Neomycin, and 400 μg/ml Hygromycin). After incubation overnight at 37° C. and 5% CO2, the growth medium was replaced by 50 μl/well assay medium (DMEM (without phenol red), Glumamax™, 10% FBS, and 10 mM Hepes, pH 7,4). Further, 50 μl/well of standard or sample in assay buffer were added. After 4 hours incubation at 37° C. and 5% CO2, the assay medium with standard or sample were removed and replaced by 100 μl/well PBS. Further, 100 μl/well LucLite™ was added. The plates were sealed and incubated at room temperature for 30 minutes. Finally, luminescence was measured on a TopCounter (Packard) in SPC (single photon counting) mode.

T1 sequence (O60896 24-148): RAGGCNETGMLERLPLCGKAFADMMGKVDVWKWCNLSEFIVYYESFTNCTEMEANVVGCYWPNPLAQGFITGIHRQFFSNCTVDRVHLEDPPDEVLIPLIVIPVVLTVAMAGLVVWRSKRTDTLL
T1 sequence (P30988 25-474): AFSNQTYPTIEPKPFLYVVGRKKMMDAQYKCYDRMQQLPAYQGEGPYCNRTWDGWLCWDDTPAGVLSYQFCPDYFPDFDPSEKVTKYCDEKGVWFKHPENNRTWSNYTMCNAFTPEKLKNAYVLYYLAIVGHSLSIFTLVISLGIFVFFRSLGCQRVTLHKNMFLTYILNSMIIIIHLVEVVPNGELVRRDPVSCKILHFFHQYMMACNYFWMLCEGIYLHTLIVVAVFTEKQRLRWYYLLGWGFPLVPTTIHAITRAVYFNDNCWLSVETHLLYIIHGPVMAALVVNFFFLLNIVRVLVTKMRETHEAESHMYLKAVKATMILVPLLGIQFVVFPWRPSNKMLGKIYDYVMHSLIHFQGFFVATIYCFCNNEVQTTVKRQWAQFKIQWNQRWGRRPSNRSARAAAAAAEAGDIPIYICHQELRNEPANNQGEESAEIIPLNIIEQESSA

Row | SMILES | EC50
1 | CC[C@H](C)[C@H](NC(=O)[C@@H]1CCCN1C(=O)CNC(=O)[C@H](Cc1ccccc1)NC(=O)[C@H](CC(N)=O)NC(=O)[C@H](CCC(N)=O)NC(=O)[C@H](CO)NC(=O)[C@H](CO)NC(=O)[C@H](Cc1c[nH]cn1)NC(=O)[C@H](CCCNC(=N)N)NC(=O)[C@H](CC(C)C)NC(=O)[C@H](Cc1ccccc1)NC(=O)[C@H](CC(N)=O)NC(=O)[C@H](C)NC(=O)[C@H](CC(C)C)NC(=O)[C@H](CCCNC(=N)N)NC(=O)[C@H](CCC(N)=O)NC(=O)[C@@H](NC(=O)[C@H](C)NC(=O)[C@@H]1CSSC[C@H](NC(=O)[C@H](CCCNC(=N)N)NC(=O)[C@H](Cc2c[nH]cn2)NC(=O)[C@H](Cc2c[nH]cn2)NC(=O)[C@H](CCC(=O)O)NC(=O)CC[C@H](NC(=O)CCCCCCCCCCCCCCCCCCC(=O)O)C(=O)O)C(=O)N[C@@H](CC(N)=O)C(=O)N[C@@H]([C@@H](C)O)C(=O)N[C@@H](C)C(=O)N[C@@H]([C@@H](C)O)C(=O)N1)[C@@H](C)O)C(=O)N[C@@H](CC(C)C)C(=O)N1CCC[C@H]1C(=O)N1CCC[C@H]1C(=O)N[C@H](C(=O)N[C@@H](CC(N)=O)C(=O)N[C@H](C(=O)NCC(=O)N[C@@H](CO)C(=O)N[C@@H](CC(N)=O)C(=O)N[C@H](C(=O)N[C@@H](Cc1ccc(O)cc1)C(N)=O)[C@@H](C)O)C(C)C)[C@@H](C)O [Example 68, N-alpha-[(S)-4-Carboxy-4-(19-carboxynonadecanoylamino)butyryl]-Glu-His-His-[Arg1,Arg17,Gln21]-pramlintide] ({C20 diacid-γGlu}-EHHRCNTATCATQRLANFLRHSSQNFGPILPPTNVGSNTY-NH2; disulfide 5-10) | 0.1 nM
2 | CC[C@H](C)[C@H](NC(=O)[C@@H]1CCCN1C(=O)CNC(=O)[C@H](Cc1ccccc1)NC(=O)[C@H](CC(N)=O)NC(=O)[C@H](CCC(N)=O)NC(=O)[C@H](CO)NC(=O)[C@H](CO)NC(=O)[C@H](Cc1c[nH]cn1)NC(=O)[C@H](CCCNC(=N)N)NC(=O)[C@H](CC(C)C)NC(=O)[C@H](Cc1ccccc1)NC(=O)[C@H](CC(N)=O)NC(=O)[C@H](C)NC(=O)[C@H](CC(C)C)NC(=O)[C@H](CCCNC(=N)N)NC(=O)[C@H](CCC(N)=O)NC(=O)[C@@H](NC(=O)[C@H](C)NC(=O)[C@@H]1CSSC[C@H](NC(=O)[C@H](CCCNC(=N)N)NC(=O)[C@H](Cc2c[nH]cn2)NC(=O)[C@H](Cc2c[nH]cn2)NC(=O)COCCOCCNC(=O)CC[C@H](NC(=O)CCCCCCCCCCCCCCCCCCC(=O)O)C(=O)O)C(=O)N[C@@H](CC(N)=O)C(=O)N[C@@H]([C@@H](C)O)C(=O)N[C@@H](C)C(=O)N[C@@H]([C@@H](C)O)C(=O)N1)[C@@H](C)O)C(=O)N[C@@H](CC(C)C)C(=O)N1CCC[C@H]1C(=O)N1CCC[C@H]1C(=O)N[C@H](C(=O)N[C@@H](CC(N)=O)C(=O)N[C@H](C(=O)NCC(=O)N[C@@H](CO)C(=O)N[C@@H](CC(N)=O)C(=O)N[C@H](C(=O)N[C@@H](Cc1ccc(O)cc1)C(N)=O)[C@@H](C)O)C(C)C)[C@@H](C)O [Example 65, N-alpha-[2-(2-{2-[4-(S)-Carboxy-4-(19-carboxynonadecanoylamino)butyrylamino]ethoxy}ethoxy)acetyl]-His-His-[Arg1,Arg17,Gln21]-pramlintide] ({C20 diacid-γGlu-AEEA}-HHRCNTATCATQRLANFLRHSSQNFGPILPPTNVGSNTY-NH2; disulfide 4-9) | 0.1 nM
3 | CC(C)C[C@H](NC(=O)[C@H](CCCNC(=N)N)NC(=O)[C@H](CCC(N)=O)NC(=O)[C@@H](NC(=O)[C@H](C)NC(=O)[C@@H]1CSSC[C@H](NC(=O)[C@H](CCC(=O)O)NC(=O)[C@H](CCCNC(=N)N)NC(=O)[C@H](CCC(=O)O)NC(=O)CC[C@H](NC(=O)CCCCCCCCCCCCCCCCCCC(=O)O)C(=O)O)C(=O)N[C@@H](CC(N)=O)C(=O)N[C@@H]([C@@H](C)O)C(=O)N[C@@H](C)C(=O)N[C@@H]([C@@H](C)O)C(=O)N1)[C@@H](C)O)C(=O)N[C@@H](C)C(=O)N[C@@H](CC(=O)O)C(=O)N[C@@H](Cc1ccccc1)C(=O)N[C@@H](CC(C)C)C(=O)N[C@@H](Cc1c[nH]cn1)C(=O)N[C@@H](Cc1c[nH]cn1)C(=O)N[C@@H](CO)C(=O)N[C@@H](CO)C(=O)N[C@@H](CC(N)=O)C(=O)N[C@@H](CC(N)=O)C(=O)N[C@@H](Cc1ccccc1)C(=O)NCC(=O)N[C@@H](C)C(=O)N1CCC[C@H]1C(=O)N[C@@H](CC(C)C)C(=O)N[C@@H](CO)C(=O)N[C@@H](CO)C(=O)N[C@H](C(=O)N[C@@H](CC(N)=O)C(=O)N[C@H](C(=O)NCC(=O)N[C@@H](CO)C(=O)N[C@@H](CC(N)=O)C(=O)N[C@H](C(=O)N[C@@H](Cc1ccc(O)cc1)C(N)=O)[C@@H](C)O)C(C)C)[C@@H](C)O [Example 42, N-alpha-[(S)-4-Carboxy-4-(19-carboxynonadecanoylamino)butyryl]-Glu-Arg-[Glu1,Asp14,His17,Ala25,Pro26,Ser28,Ser29]-pramlintide] ({C20 diacid-γGlu}-ERECNTATCATQRLADFLHHSSNNFGAPLSSTNVGSNTY-NH2; disulfide 4-9) | 0.6 nM
4 | CC[C@H](C)[C@H](NC(=O)[C@@H]1CCCN1C(=O)CNC(=O)[C@H](Cc1ccccc1)NC(=O)[C@H](CC(N)=O)NC(=O)[C@H](CC(N)=O)NC(=O)[C@H](CO)NC(=O)[C@H](CO)NC(=O)[C@H](Cc1c[nH]cn1)NC(=O)[C@H](Cc1c[nH]cn1)NC(=O)[C@H](CC(C)C)NC(=O)[C@H](Cc1ccccc1)NC(=O)[C@H](CC(N)=O)NC(=O)[C@H](C)NC(=O)[C@H](CC(C)C)NC(=O)[C@H](CCCNC(=N)N)NC(=O)[C@H](CCC(N)=O)NC(=O)[C@@H](NC(=O)[C@H](C)NC(=O)[C@@H]1CSSC[C@H](NC(=O)COCCOCCNC(=O)CC[C@H](NC(=O)CCCCCCCCCCCCCCCCCCC(=O)O)C(=O)O)C(=O)N[C@@H](CC(N)=O)C(=O)N[C@@H]([C@@H](C)O)C(=O)N[C@@H](C)C(=O)N[C@@H]([C@@H](C)O)C(=O)N1)[C@@H](C)O)C(=O)N[C@@H](CC(C)C)C(=O)N1CCC[C@H]1C(=O)N1CCC[C@H]1C(=O)N[C@H](C(=O)N[C@@H](CC(N)=O)C(=O)N[C@H](C(=O)NCC(=O)N[C@@H](CO)C(=O)N[C@@H](CC(N)=O)C(=O)N[C@H](C(=O)N[C@@H](Cc1ccc(O)cc1)C(N)=O)[C@@H](C)O)C(C)C)[C@@H](C)O [Example 16, N-alpha-[2-(2-{2-[4-(S)-Carboxy-4-(19-carboxynonadecanoylamino)butyrylamino]ethoxy}ethoxy)acetyl]-[His17]-pramlintide (2-37)] ({C20 diacid-γGlu-AEEA}-CNTATCATQRLANFLHHSSNNFGPILPPTNVGSNTY-NH2; disulfide 1-6) | 0.1 nM
5 | CC[C@H](C)[C@H](NC(=O)[C@@H]1CCCN1C(=O)CNC(=O)[C@H](Cc1ccccc1)NC(=O)[C@H](CC(N)=O)NC(=O)[C@H](CCC(N)=O)NC(=O)[C@H](CO)NC(=O)[C@H](CO)NC(=O)[C@H](Cc1c[nH]cn1)NC(=O)[C@H](Cc1c[nH]cn1)NC(=O)[C@H](CC(C)C)NC(=O)[C@H](Cc1ccccc1)NC(=O)[C@H](CC(N)=O)NC(=O)[C@H](C)NC(=O)[C@H](CC(C)C)NC(=O)[C@H](CCCNC(=N)N)NC(=O)[C@H](CCC(N)=O)NC(=O)[C@@H](NC(=O)[C@H](C)NC(=O)[C@@H]1CSSC[C@H](NC(=O)[C@H](CCCNC(=N)N)NC(=O)[C@H](Cc2c[nH]cn2)NC(=O)[C@H](Cc2c[nH]cn2)NC(=O)COCCOCCNC(=O)CC[C@H](NC(=O)CCCCCCCCCCCCCCCCCCC(=O)O)C(=O)O)C(=O)N[C@@H](CC(N)=O)C(=O)N[C@@H]([C@@H](C)O)C(=O)N[C@@H](C)C(=O)N[C@@H]([C@@H](C)O)C(=O)N1)[C@@H](C)O)C(=O)N[C@@H](CC(C)C)C(=O)N1CCC[C@H]1C(=O)N1CCC[C@H]1C(=O)N[C@H](C(=O)N[C@@H](CC(N)=O)C(=O)N[C@H](C(=O)NCC(=O)N[C@@H](CO)C(=O)N[C@@H](CC(N)=O)C(=O)N[C@H](C(=O)N[C@@H](Cc1ccc(O)cc1)C(N)=O)[C@@H](C)O)C(C)C)[C@@H](C)O [Example 59, N-alpha-[2-(2-{2-[4-(S)-Carboxy-4-(19-carboxynonadecanoylamino)butyrylamino]ethoxy}ethoxy)acetyl]-His-His-[Arg1His17,Gln21]-pramlintide] ({C20 diacid-γGlu-AEEA}-HHRCNTATCATQRLANFLHHSSQNFGPILPPTNVGSNTY-NH2; disulfide 4-9) | 0.06 nM
